Experimental data as given in patent US20120093836A1, “PHARMACEUTICAL COMPOSITIONS FOR TREATING METASTASIS” (UNIVERSIDAD DEL PAIS VASCO, priority 2009, published 2012).

Tests used:
TNF-α = experiment: Production of TNF-α by the HSE (ELISA of supernatants); type: cell-based, mouse; details: IL-1β receptor blocked
Description: The concentration of TNF-α and IL-18 in the supernatants was determined using a monoclonal antibody-based commercial ELISA kit (R&D Systems) following the manufacturer's instructions. The tumor adhesion assays of C. albicans-induced tumor adhesion and B16 melanoma tumor cell proliferation assays in response to C. albicans (both described above) were performed in collaboration with the company, Pharmakine S.L.
The stimulation of the endothelium causes a cascade of cytokine which ends with the expression of adhesion molecules such as the VCAM-1 (Mendoza (cited at supra) 1998, Vidal-Vanaclocha et al. 2000. PNAS, 97: 734-739) wherein the tumor cells are adhered. To know whether the process triggered by the MNF which as a consequence caused the increase of the adhesion of MB16 cells to the HSE was also mediated by cytokines, the concentration of TNF-α, the cytokine which is described as one of the first and most important cytokines acting in the proinflammatory cascade described in the HSE was measured.

[1] = test system: adhesion of MB16 cells to the HSE (hepatic sinusoidal endothelium); experiment: Tumor adhesion assay for C. albicans-induced tumor adhesion (fluorescence, BCECF-AM labelled MB16 cells on HSE); type: cell-based, mouse; details: IL-1β receptor blocked, added 15 minutes before MNF
Description: The adhesion was measured using the method based on the fluorescence measurement. The MB16 cells were resuspended in a solution of 2′,7′-bis-(2-carboxyethyl)-5.6-carboxyfluorescein acetoxymethyl ester (BCECF-AM) in DMEM-HEPES (40 μg/ml) and were incubated for 20 minutes at 37° C. The cells were then washed and resuspended in DMEM-HEPES at a concentration of 2×10^5 cells/ml. The autofluorescence of the HSE culture was determined.
Subsequently, the HSE cells were incubated with different strains and extracts of C. albicans (5×10^5 cells/well), MNF (2 μg carbohydrate/ml), EC (2 μg carbohydrate/ml), PF (2 μg protein/ml) or commercial mannan from Saccharomyces cerevisiae (100 μg/ml) for 8 hours. The non-treated HSE cells received basal medium as control. […]
Once the time of adhesion ended, the co-cultures were excited with light of wavelength 488 nm and the fluorescence emitted at 530 nm by the BCEF incorporated to the tumor cells in the scanning fluorometer in plate was recorded. […] Subsequently, 1 ml of the same adhesion medium was added in each well and the fluorescence emitted was read. Thus a relative value (in arbitrary units of fluorescence intensity) could be determined with respect to the number of tumor cells added. […]

Substance: IL-Ra: IL-1β receptor antagonist molecule (Amgen Biologicals)
- effect on the release of TNF-α by the endothelium stimulated by the mannoproteins of C. albicans (in words) (TNF-α): partially reduces
- effect on the increase of the tumor adhesion to the HSE induced by the MNF (in words) [1]: completely inhibits
